Source: patent US20050171037A1, “Therapeutic combinations” (Agouron Pharmaceuticals, Inc., priority 2004, published 2005)
Like-named read-outs stand apart in the source and are kept apart here.

Columns and labels:
[1] = Compound A pharmacokinetics after oral administration of a single dose with and without ritonavir, human subjects, fed; format: in vivo; conditions: for half-life / Cmax / AUC / Tmax: plasma, po; for half-life / Ae % (drug recovered unchanged in urine, percent of administered dose): arithmetic mean; for Cmax / AUC: geometric mean; for AUC: read-out: AUC (area under the concentration-time curve from time 0 to infinity); for Tmax: median
Procedure: Nos. 11/008325, filed Dec. 8, 2004, and 60/591,351, filed Jul. 26, 2004, all of which are hereby incorporated by reference for this purpose. A total of 30 human subjects were administered a single 100 mg, 300 mg, 800 mg, 1000 mg, 1500 mg, 2000 mg, or 3000 mg dose of a spray-dried composition comprising 90 wt % amorphous Compound A and 10 wt % hydroxypropyl methyl cellulose acetate succinate (HPMCAS), under fed conditions according to the schedule found in Table I. […] Each plasma sample was analyzed for the presence of Compound A and the following pharmacokinetic parameters for Compound A were determined for each subject: area under the concentration-time curve from time 0 extrapolated to infinity (AUC), maximum observed plasma concentration (Cmax), time to first occurrence of Cmax (Tmax), terminal phase plasma half-life (t1/2), and cumulative amount of drug recovered unchanged in the urine expressed as a percentage of administered dose (Ae %). The mean to t1/2 value for the 100 mg dose group was calculated from three subjects. The t1/2 values for three subjects at this dose level were deemed unreliable owing to poor estimates of the terminal phase rate constant from regressions (r^2 values less than 0.9) and, therefore, were not included in the summary statistics. Similarly, the th for one subject in the 800 mg dose group was deemed unreliable owing to poor estimate of the terminal phase rate constant from regression (r^2 values less than 0.9) and therefore was not included in the summary statistics.

[2] = as above; format: in vivo; conditions: for Ae % (drug recovered unchanged in urine, percent of administered dose): arithmetic mean
[3] = 100 mg, single oral dose 100 mg, without ritonavir
[4] = 300 mg, single oral dose 300 mg, without ritonavir
[5] = 800 mg, single oral dose 800 mg, without ritonavir
[6] = 1000 mg, single oral dose 1000 mg, without ritonavir
[7] = 1500 mg, single oral dose 1500 mg, without ritonavir
[8] = 2000 mg, single oral dose 2000 mg, without ritonavir
[9] = 3000 mg, single oral dose 3000 mg, without ritonavir
[10] = single oral dose 400 mg + ritonavir (100 mg every 12 hours for 3 doses)
[11] = single oral dose 800 mg + ritonavir (100 mg every 12 hours for 3 doses)

C=CCNC(=O)[C@H]1N(C(=O)[C@@H](O)[C@H](Cc2ccccc2)NC(=O)c2cccc(O)c2C)CSC1(C)C [Compound A, (4R)-N-allyl-3-{(2S,3S)-2-hydroxy-3-[(3-hydroxy-2-methylbenzoyl)amino]-4-phenylbutanoyl}-5,5-dimethyl-1,3-thiazolidine-4-carboxamide] showed a half-life ([1]; 100 mg, single oral dose 100 mg, without ritonavir, N = 3, read-out: t½ (terminal phase plasma half-life) (converted)) of 8.63 h, a Cmax [1, 3] of 160 ng/mL and an AUC [1, 3] of 740 ng·h/mL. It also gave a Tmax [1, 3] of 3 h, a half-life ([1]; 300 mg, single oral dose 300 mg, without ritonavir, read-out: t½ (terminal phase plasma half-life) (converted)) of 8.17 h and a Cmax [1, 4] of 720 ng/mL. The AUC [1, 4] was 3560 ng·h/mL, the Tmax [1, 4] was 2.5 h and the half-life ([1]; 800 mg, single oral dose 800 mg, without ritonavir, N = 5, read-out: t½ (terminal phase plasma half-life) (converted)) was 11.7 h. The Cmax [1, 5] was 3120 ng/mL, the AUC [1, 5] was 15800 ng·h/mL and the Tmax [1, 5] was 3 h. The half-life ([1]; 1000 mg, single oral dose 1000 mg, without ritonavir, read-out: t½ (terminal phase plasma half-life) (converted)) was 7.28 h, the Cmax [1, 6] was 3350 ng/mL and the AUC [1, 6] was 16900 ng·h/mL. The Tmax [1, 6] was 3 h, the half-life ([1]; 1500 mg, single oral dose 1500 mg, without ritonavir, read-out: t½ (terminal phase plasma half-life) (converted)) was 9.17 h and the Cmax [1, 7] was 7040 ng/mL. The AUC [1, 7] was 41900 ng·h/mL, the Tmax [1, 7] was 4 h and the half-life ([1]; 2000 mg, single oral dose 2000 mg, without ritonavir, read-out: t½ (terminal phase plasma half-life) (converted)) was 10.4 h. For the same molecule, the Cmax [1, 8] was 7490 ng/mL, the AUC [1, 8] was 44200 ng·h/mL and the Tmax [1, 8] was 2 h. The half-life ([1]; 3000 mg, single oral dose 3000 mg, without ritonavir, read-out: t½ (terminal phase plasma half-life) (converted)) was 7.6 h, the Cmax [1, 9] was 11200 ng/mL and the AUC [1, 9] was 86400 ng·h/mL. For the same molecule, the Tmax [1, 9] was 4 h, the half-life ([1]; single oral dose 400 mg + ritonavir (100 mg every 12 hours for 3 doses), read-out: t½ (terminal phase plasma half-life) (converted)) was 8.56 h and the Cmax [1, 10] was 5210 ng/mL. It also gave a Tmax [1, 10] of 3.51 h, a half-life ([1]; single oral dose 800 mg + ritonavir (100 mg every 12 hours for 3 doses), read-out: t½ (terminal phase plasma half-life) (converted)) of 8.39 h and a Cmax [1, 11] of 7350 ng/mL. For the same molecule, the Tmax [1, 11] was 4 h, the “Ae % (drug recovered unchanged in urine, percent of administered dose)” value ([1]; single oral dose 100 mg, without ritonavir) was 1.34% and the “Ae % (drug recovered unchanged in urine, percent of administered dose)” value ([1]; single oral dose 300 mg, without ritonavir) was 2.04%. For the same molecule, the “Ae % (drug recovered unchanged in urine, percent of administered dose)” value ([1]; single oral dose 800 mg, without ritonavir) was 4.00%, the “Ae % (drug recovered unchanged in urine, percent of administered dose)” value ([1]; single oral dose 1000 mg, without ritonavir) was 4.21% and the “Ae % (drug recovered unchanged in urine, percent of administered dose)” value ([1]; single oral dose 2000 mg, without ritonavir) was 7.92%. The “Ae % (drug recovered unchanged in urine, percent of administered dose)” value ([1]; single oral dose 3000 mg, without ritonavir) was 9.05%, the AUC ([2]; plasma, single oral dose 400 mg + ritonavir (100 mg every 12 hours for 3 doses), geometric mean, read-out: AUC (area under the concentration-time curve from time 0 to infinity)) was 42500 ng·h/mL and the “Ae % (drug recovered unchanged in urine, percent of administered dose)” value [2, 10] was 20.4%. The “Ae % (drug recovered unchanged in urine, percent of administered dose)” value [2, 11] was 19.4% and the “AUC (area under the concentration-time curve from time 0 to infinity)” value ([2]; single oral dose 800 mg + ritonavir (100 mg every 12 hours for 3 doses), geometric mean) was 71400 ng·h/mL.
